Molecules are shown by their SMILES.

The conditions of data set [1]: reported by Barnes et al. (U.S. Pat. No. 4,721,723); cited from earlier work.
Data set [2] in a line: Stability testing: specimen stored in a glass container with HDPE liner, opened and closed periodically, exposing it to atmospheric moisture; moisture and appearance noted. It counts as physicochemical. On the procedure: To a reaction flask containing 100 ml of absolute ethanol was added 13.9 g of paroxetine base. The flask was shaken until a clear solution was obtained. To this paroxetine solution, 10 ml of a solution of hydrochloric acid in absolute ethanol (22% v/v) was added dropwise. As the reaction proceeded to completion, the color of the solution changed from a yellow brown to a pink brown. The product was then vacuum dried in a rotary evaporator. A foamy, amorphous solid was obtained (lot # W951027). The produced amorphous solid was subjected to an additional 2.5 days of drying in a desiccator at reduced pressure. The solid, a free-flowing powder, was tested for composition by NMR and FTIR. The findings were consistent with published spectra for paroxetine. Silver nitrate testing of the solid indicated the presence of chloride in the sample. […] Residual moisture was determined by Karl-Fisher coulometric method at 0.7%. […] X-ray powder diffraction was performed using the powder pack method. The powder patterns were obtained using a Philips PW1710 automated diffractometer, with monochromatized CuKα, (Kα1=1.54060 Å; Kα2=1.54438 Å) radiation. The diffractometer was equipped with a compensating slit and a graphite monochromator. It was calibrated to 0.02° (2θ) using the quartz peak at 26.66θ° (2θ). The minimum peak/background ratio was 0.75. This spectrum is consistent with an amorphous solid form. The halo effect is clearly seen and the intensity is small. Differential scanning calorimetry was performed on the solid at two different heating rates.
A specimen (0.5 g) was stored in a glass container with a HDPE liner for stability testing. The container was opened and closed periodically exposing the specimen to atmospheric moisture. Moisture determination was conducted at intervals of about 3 months.
A solution of paroxetine hydrochloride in absolute ethanol (3.2 g/100 ml) was prepared as described in EXAMPLE 1. The solution was charged into a spray-drying machine (Yamato Chemical Co.) using a standard nozzle (0.1 mm orifice). The inlet temperature was set at 90 degrees Celsius and the outlet temperature at 60 degrees Celsius. The sample was spray dried to a fine, off-white powder (lot # W951026). Following recovery, the material was transferred to a vacuum desiccator and dried under partial vacuum for an additional 2.5 days. The resulting solid, a free-flowing powder, was tested for composition by NMR and FTIR. The findings were consistent with published spectra for paroxetine. Silver nitrate solution addition to an aqueous solution of the powder produced a white precipitate indicative of chloride. […] Residual moisture in the product was 0.8% measured by Karl-Fisher coulometric method. A sample was analyzed by HPLC and found to be free from related substances (purity>99%). This spectrum is consistent with an amorphous form. Differential scanning calorimetry was conducted on the solid.
For stability testing a specimen (9 g) was stored in a glass container with a HDPE liner. The container was opened and closed periodically exposing the specimen to atmospheric moisture. Moisture determination was conducted at intervals of about 3 months.

Setting [3] is: 3 months storage, periodic exposure to atmospheric moisture.
Setting [4] is: 6 months storage, periodic exposure to atmospheric moisture.
Setting [5] is: Initial, Karl-Fisher coulometric method.

With `Cl.Fc1ccc([C@@H]2CCNC[C@H]2COc2ccc3c(c2)OCO3)cc1` [Amorphous paroxetine hydrochloride, (−)-trans4R-(4′-fluorophenyl)-3S-[(3′4′-methylenedioxy-phenoxy)methyl]-piperidine], in data set [1], the hygroscopicity result is listed as “undesirably hygroscopic”.
For the compound `Cl.Fc1ccc([C@@H]2CCNC[C@H]2COc2ccc3c(c2)OCO3)cc1` [lot #W951026, (−)-trans4R-(4′-fluorophenyl)-3S-[(3′4′-methylenedioxy-phenoxy)methyl]-piperidine], the APPEARANCE entry in data set [2] (setting [3]), in data set [2] (setting [4]) and in data set [2] (Initial) was “Free-flowing” in each case. Moreover, the results for the MOISTURE in data set [2] (setting [3]), in data set [2] (setting [4]) and in data set [2] (setting [5]) were 2.1% w/w, 2.2% w/w and 0.8% w/w, respectively.
Take `Cl.Fc1ccc([C@@H]2CCNC[C@H]2COc2ccc3c(c2)OCO3)cc1` [lot #W951027, (−)-trans4R-(4′-fluorophenyl)-3S-[(3′4′-methylenedioxy-phenoxy)methyl]-piperidine]: the APPEARANCE result in data set [2] (setting [3]), in data set [2] (setting [4]) and in data set [2] (Initial) was “Free-flowing” throughout. The MOISTURE turned out to be 1.8% w/w in data set [2] (setting [3]), 2.1% w/w in data set [2] (setting [4]) and 0.7% w/w in data set [2] (setting [5]).

Source of the values: patent US6638948B1, “Amorphous paroxetine composition” (Pentech Pharmaceuticals, Inc., priority 1996, dated 2003).
